Assay results: ChEMBL document CHEMBL1201862, “PubChem BioAssay data set” (2004)
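Method: 48-hour compound exposure of cells in 96-well plates, five concentrations, linear interpolation of endpoints. GI50 is the concentration that inhibits growth by half.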 The source made the active and inactive calls. Cut-off read from the data, not from the text of the source: active = GI50 up to about 1.1 µM and inactive = higher.

Legend:
Test in all cases: growth of human tumour cells (NCI), 48 h
HCT-116 = tested on: HCT-116
EKVX = tested on: EKVX
A498 = tested on: A498
TK-10 = tested on: TK-10
COLO 205 = tested on: COLO 205
K562 = tested on: K562
UACC-62 = tested on: UACC-62
SF-295 = tested on: SF-295
MOLT-4 = tested on: MOLT-4
OVCAR-5 = tested on: OVCAR-5
Malme-3M = tested on: Malme-3M
T47D = tested on: T47D
OVCAR-4 = tested on: OVCAR-4
BT-549 = tested on: BT-549
A549 = tested on: A549
CAKI-1 = tested on: CAKI-1
Hs-578T = tested on: Hs-578T
U-251 = tested on: U-251
KM12 = tested on: KM12

SMILES	GI50 (HCT-116)	GI50 (EKVX)	GI50 (A498)	GI50 (TK-10)	GI50 (COLO 205)	GI50 (K562)	GI50 (UACC-62)	GI50 (SF-295)	GI50 (MOLT-4)	GI50 (OVCAR-5)	GI50 (Malme-3M)	GI50 (T47D)	GI50 (OVCAR-4)	GI50 (BT-549)	GI50 (A549)	GI50 (CAKI-1)	GI50 (Hs-578T)	GI50 (U-251)	GI50 (KM12)
Brc1ccc2[nH]cc([C@H]3CN[C@@H](c4c[nH]c5ccc(Br)cc45)CN3)c2c1	2.02 µM (inactive)	2.61 µM (inactive)	2 µM (inactive)	2.26 µM (inactive)	1.73 µM (inactive)	1.99 µM (inactive)	5.04 µM (inactive)	4.97 µM (inactive)	2.11 µM (inactive)	2.75 µM (inactive)	2.2 µM (inactive)	2.66 µM (inactive)	1.94 µM (inactive)	> 41.1 µM (inactive)	2.52 µM (inactive)	1.82 µM (inactive)	4.31 µM (inactive)	2.12 µM (inactive)	1.76 µM (inactive)
Clc1ccc(/N=C/C=C/Nc2ccc(Cl)cn2)nc1	12.2 µM (inactive)	0.714 µM (active)	20.1 µM (inactive)	19.1 µM (inactive)	12.6 µM (inactive)	7.66 µM (inactive)	12.9 µM (inactive)	16.3 µM (inactive)	4.74 µM (inactive)	16.3 µM (inactive)	17.3 µM (inactive)	18.3 µM (inactive)	7.52 µM (inactive)	17.2 µM (inactive)	14.5 µM (inactive)	9.82 µM (inactive)	5.14 µM (inactive)	8.26 µM (inactive)	8.53 µM (inactive)
O=C1NC2(CCN(CCc3ccccc3)CC2)Oc2ccccc21	55.2 µM (inactive)	69.2 µM (inactive)	68.1 µM (inactive)	> 100 µM (inactive)	31.5 µM (inactive)	32.5 µM (inactive)	46.6 µM (inactive)	49.2 µM (inactive)	32.5 µM (inactive)	44.2 µM (inactive)	33.3 µM (inactive)	49.7 µM (inactive)	> 100 µM (inactive)	39 µM (inactive)	64.6 µM (inactive)	> 100 µM (inactive)	15.3 µM (inactive)	61.9 µM (inactive)	54.7 µM (inactive)
COC(OC)C1OC(CO)C(n2ccc(N)nc2=O)C1O (stereo not given)	> 100 µM (inactive)	> 100 µM (inactive)	> 100 µM (inactive)	> 100 µM (inactive)	> 100 µM (inactive)	> 100 µM (inactive)	> 100 µM (inactive)	> 100 µM (inactive)	> 100 µM (inactive)	> 100 µM (inactive)	> 100 µM (inactive)	> 100 µM (inactive)	> 100 µM (inactive)	> 100 µM (inactive)	> 100 µM (inactive)	> 100 µM (inactive)	> 100 µM (inactive)	> 100 µM (inactive)	> 100 µM (inactive)
CC1=CC(c2ccccc2)n2c(nc3cc4ccccc4cc32)N1 (stereo not given)	> 100 µM (inactive)	> 100 µM (inactive)	> 100 µM (inactive)	> 100 µM (inactive)	> 100 µM (inactive)	> 100 µM (inactive)	> 100 µM (inactive)	> 100 µM (inactive)	> 100 µM (inactive)	> 100 µM (inactive)	> 100 µM (inactive)	> 100 µM (inactive)	> 100 µM (inactive)	> 100 µM (inactive)	> 100 µM (inactive)	> 100 µM (inactive)	> 100 µM (inactive)	> 100 µM (inactive)	> 100 µM (inactive)
COc1cc(C(=O)N(C)N(C)C)cc(OC)c1OC	> 10 µM (inactive)	> 10 µM (inactive)	> 10 µM (inactive)	> 10 µM (inactive)	> 10 µM (inactive)	> 10 µM (inactive)	> 10 µM (inactive)	> 10 µM (inactive)	> 10 µM (inactive)	> 10 µM (inactive)	> 10 µM (inactive)	> 10 µM (inactive)	> 10 µM (inactive)	> 10 µM (inactive)	> 10 µM (inactive)	> 10 µM (inactive)	> 10 µM (inactive)	> 10 µM (inactive)	> 10 µM (inactive)
CC(C)=CC(=O)c1[nH]c2ccccc2c1CC(=O)NCCc1cncn1C	67.9 µM (inactive)	25.8 µM (inactive)	30 µM (inactive)	58.7 µM (inactive)	21.9 µM (inactive)	30.5 µM (inactive)	61.9 µM (inactive)	> 100 µM (inactive)	> 100 µM (inactive)	> 100 µM (inactive)	> 100 µM (inactive)	34.6 µM (inactive)	> 100 µM (inactive)	56.9 µM (inactive)	68.4 µM (inactive)	> 100 µM (inactive)	99.1 µM (inactive)	74.5 µM (inactive)	55.7 µM (inactive)
COC(=O)c1ccc(C)cc1C1CN=NC12Cc1cc(C)ccc1C2=O (stereo not given)	7.64 µM (inactive)	23.4 µM (inactive)	12.1 µM (inactive)	22.8 µM (inactive)	6.44 µM (inactive)	4.84 µM (inactive)	8 µM (inactive)	7.28 µM (inactive)	10.3 µM (inactive)	30 µM (inactive)	13.2 µM (inactive)	20.8 µM (inactive)	26.2 µM (inactive)	15.3 µM (inactive)	25.4 µM (inactive)	11.8 µM (inactive)	8.67 µM (inactive)	11.7 µM (inactive)	6.14 µM (inactive)
O=C(O)c1cc(NC2=C(Cl)C(=O)c3c(O)ccc(O)c3C2=O)ccc1O	> 10 µM (inactive)	> 10 µM (inactive)	> 10 µM (inactive)	> 10 µM (inactive)	> 10 µM (inactive)	> 10 µM (inactive)	> 10 µM (inactive)	> 10 µM (inactive)	> 10 µM (inactive)	> 10 µM (inactive)	> 10 µM (inactive)	> 10 µM (inactive)	> 10 µM (inactive)	> 10 µM (inactive)	> 10 µM (inactive)	> 10 µM (inactive)	> 10 µM (inactive)	> 10 µM (inactive)	> 10 µM (inactive)
COc1ccc2nc(N/N=C/c3sccc3C)cc(C)c2c1	11.6 µM (inactive)	18.2 µM (inactive)	12.2 µM (inactive)	12 µM (inactive)	13.6 µM (inactive)	38 µM (inactive)	13.1 µM (inactive)	7.23 µM (inactive)	18.7 µM (inactive)	23.2 µM (inactive)	17.5 µM (inactive)	42.9 µM (inactive)	21.4 µM (inactive)	15.6 µM (inactive)	20.5 µM (inactive)	> 100 µM (inactive)	18.6 µM (inactive)	15.4 µM (inactive)	22.5 µM (inactive)
c1cncc(-c2cc(-c3cc(-c4cccnc4)[nH]n3)n[nH]2)c1	> 100 µM (inactive)	> 100 µM (inactive)	> 100 µM (inactive)	> 100 µM (inactive)	> 100 µM (inactive)	> 100 µM (inactive)	> 100 µM (inactive)	> 100 µM (inactive)	> 100 µM (inactive)	> 100 µM (inactive)	> 100 µM (inactive)	> 100 µM (inactive)	> 100 µM (inactive)	> 100 µM (inactive)	> 100 µM (inactive)	> 100 µM (inactive)	> 100 µM (inactive)	> 100 µM (inactive)	> 100 µM (inactive)
COC(=O)c1sc(=O)sc1SCc1cccc(CSc2sc(=O)sc2C(=O)OC)c1	56.1 µM (inactive)	42.8 µM (inactive)	36.1 µM (inactive)	23.2 µM (inactive)	> 100 µM (inactive)	43.3 µM (inactive)	33.7 µM (inactive)	26.2 µM (inactive)	47.6 µM (inactive)	> 100 µM (inactive)	18.7 µM (inactive)	38.9 µM (inactive)	15.9 µM (inactive)	36.4 µM (inactive)	51.4 µM (inactive)	28.4 µM (inactive)	57.1 µM (inactive)	17.4 µM (inactive)	> 100 µM (inactive)
C/C(=N/NC(=S)N(Cc1ccccn1)Cc1ccccn1)c1cnccn1	0.33 µM (active)	0.189 µM (active)	9.84 µM (inactive)	0.071 µM (active)	0.0861 µM (active)	0.519 µM (active)	0.537 µM (active)	0.374 µM (active)	0.0948 µM (active)	1.26 µM (inactive)	0.0472 µM (active)	0.231 µM (active)	0.288 µM (active)	0.646 µM (active)	0.329 µM (active)	0.429 µM (active)	6.46 µM (inactive)	0.129 µM (active)	0.427 µM (active)
Cc1ccc(-c2n[nH]c(=O)[nH]2)cc1	> 100 µM (inactive)	45.8 µM (inactive)	> 100 µM (inactive)	> 100 µM (inactive)	> 100 µM (inactive)	> 100 µM (inactive)	> 100 µM (inactive)	> 49 µM (inactive)	> 100 µM (inactive)	> 100 µM (inactive)	> 100 µM (inactive)	> 46.5 µM (inactive)	> 100 µM (inactive)	> 100 µM (inactive)	> 100 µM (inactive)	> 100 µM (inactive)	> 100 µM (inactive)	> 100 µM (inactive)	> 100 µM (inactive)
C[C@H]1CCC/C=C/[C@@H]2C[C@H](OC(=O)CN(C)C)C[C@H]2[C@H](O)/C=C/C(=O)O1	0.242 µM (active)	0.188 µM (active)	0.083 µM (active)	0.1 µM (active)	0.0476 µM (active)	0.241 µM (active)	0.108 µM (active)	0.165 µM (active)	0.187 µM (active)	0.102 µM (active)	0.0738 µM (active)	0.329 µM (active)	0.154 µM (active)	0.232 µM (active)	0.286 µM (active)	0.161 µM (active)	0.0458 µM (active)	0.254 µM (active)	0.0522 µM (active)
